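Cells were grown in 96-well plates and exposed to each compound for 48 hours at five concentrations; endpoints were interpolated linearly between bracketing concentrations, or set to the highest concentration if not reached. GI50 is the concentration that inhibits growth by half.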 Calls of active or inactive are those of the source. Rule as the data show it: active = GI50 up to about 1.1 µM and inactive = higher.
Key:
Assay in all cases: growth of human tumour cells (NCI), 48 h
ACHN = tested on: ACHN
EKVX = tested on: EKVX
HCT-116 = tested on: HCT-116
HCT-15 = tested on: HCT-15
HL-60 = tested on: HL-60
HOP-62 = tested on: HOP-62
IGROV-1 = tested on: IGROV-1
KM12 = tested on: KM12
MCF7 = tested on: MCF7
MDA-MB-435 = tested on: MDA-MB-435
MOLT-4 = tested on: MOLT-4
NCI-H226 = tested on: NCI-H226
OVCAR-3 = tested on: OVCAR-3
SF-268 = tested on: SF-268
SF-539 = tested on: SF-539
SN12C = tested on: SN12C
SR = tested on: SR
SW-620 = tested on: SW-620
TK-10 = tested on: TK-10
UACC-62 = tested on: UACC-62

Compound	GI50 (ACHN)	GI50 (EKVX)	GI50 (HCT-116)	GI50 (HCT-15)	GI50 (HL-60)	GI50 (HOP-62)	GI50 (IGROV-1)	GI50 (KM12)	GI50 (MCF7)	GI50 (MDA-MB-435)	GI50 (MOLT-4)	GI50 (NCI-H226)	GI50 (OVCAR-3)	GI50 (SF-268)	GI50 (SF-539)	GI50 (SN12C)	GI50 (SR)	GI50 (SW-620)	GI50 (TK-10)	GI50 (UACC-62)
COc1ccc2[nH]c3c(C)c4ccnc(NCCCN(C)CCCN)c4c(C)c3c2c1	0.119 µM (active)	0.225 µM (active)	0.107 µM (active)	0.258 µM	0.12 µM (active)	0.109 µM (active)	0.165 µM (active)	0.258 µM (active)	0.0263 µM (active)	0.195 µM (active)	0.111 µM (active)	0.0458 µM (active)	0.469 µM (active)	0.138 µM (active)	0.118 µM (active)	0.0274 µM (active)	0.186 µM (active)	0.102 µM (active)	0.166 µM (active)	0.22 µM (active)
CN(C)CCNC(=O)c1cc([N+](=O)[O-])ccn1	36.7 µM (inactive)	> 100 µM (inactive)	24.8 µM (inactive)	18.1 µM	20.3 µM (inactive)	31.4 µM (inactive)	25.9 µM (inactive)	32.8 µM (inactive)	16.6 µM (inactive)	19 µM (inactive)	23.1 µM (inactive)	> 100 µM (inactive)	22.5 µM (inactive)	28.4 µM (inactive)	22.8 µM (inactive)	23.8 µM (inactive)	54.8 µM (inactive)	27 µM (inactive)	> 100 µM (inactive)	19.2 µM (inactive)
CC(=O)OC1COC(n2nc(/C=C/c3ccc(Cl)cc3)c(=O)n(/N=C/c3ccccc3)c2=S)C(OC(C)=O)C1OC(C)=O (stereo not given)	> 100 µM (inactive)	> 100 µM (inactive)	> 100 µM (inactive)	> 100 µM	> 100 µM (inactive)	> 100 µM (inactive)	> 100 µM (inactive)	> 100 µM (inactive)	> 100 µM (inactive)	> 100 µM (inactive)	> 100 µM (inactive)	> 100 µM (inactive)	> 100 µM (inactive)	> 100 µM (inactive)	> 100 µM (inactive)	> 100 µM (inactive)	> 100 µM (inactive)	> 100 µM (inactive)	> 100 µM (inactive)	> 100 µM (inactive)
CCN(CC)CCCNc1ccc([N+](=O)[O-])c2nc3ccccc3c(N)c12	0.324 µM (active)	1.01 µM (active)	0.544 µM (active)	0.883 µM	0.514 µM (active)	5.56 µM (inactive)	0.622 µM (active)	0.392 µM (active)	0.402 µM (active)	1.06 µM (active)	0.302 µM (active)	2.67 µM (inactive)	1.55 µM (inactive)	1.23 µM (inactive)	0.495 µM (active)	0.74 µM (active)	0.512 µM (active)	0.365 µM (active)	2.12 µM (inactive)	2.75 µM (inactive)
CCCN(CCCCN1C(=O)c2ccccc2C1=O)CC1COc2ccccc2O1 (stereo not given)	> 100 µM (inactive)	> 100 µM (inactive)	59.4 µM (inactive)	52.2 µM	14.1 µM (inactive)	> 100 µM (inactive)	> 100 µM (inactive)	> 100 µM (inactive)	53.1 µM (inactive)	> 100 µM (inactive)	23.3 µM (inactive)	53 µM (inactive)	> 100 µM (inactive)	> 100 µM (inactive)	83.2 µM (inactive)	> 100 µM (inactive)	25.1 µM (inactive)	> 100 µM (inactive)	> 100 µM (inactive)	> 100 µM (inactive)
Oc1ccc(/N=N/c2ccc(Cl)cc2)cc1	12.9 µM (inactive)	17.3 µM (inactive)	15.9 µM (inactive)	14.7 µM	4.38 µM (inactive)	18.4 µM (inactive)	12.9 µM (inactive)	13 µM (inactive)	17.7 µM (inactive)	14.9 µM (inactive)	13.2 µM (inactive)	17.7 µM (inactive)	21.7 µM (inactive)	17.7 µM (inactive)	18.4 µM (inactive)	17.1 µM (inactive)	19.5 µM (inactive)	30.5 µM (inactive)	18.1 µM (inactive)	11.9 µM (inactive)

From ChEMBL document CHEMBL1201862, “PubChem BioAssay data set” (2004)
